Columns and labels:
Type in all cases: cell-based
[1] = target: Sodium-dependent noradrenaline transporter (Homo sapiens, UniProt P23975); experiment: Inhibition of human NET expressed in HEK293 cells assessed as reduction in [3H]-NE uptake by micro beta scintillation counting analysis
[2] = target: Sodium-dependent dopamine transporter (Homo sapiens, UniProt Q01959); experiment: Inhibition of human DAT expressed in HEK293 cells assessed as reduction in [3H]-DA uptake by micro beta scintillation counting analysis
Sodium-dependent dopamine transporter, sequence (Q01959 whole entry): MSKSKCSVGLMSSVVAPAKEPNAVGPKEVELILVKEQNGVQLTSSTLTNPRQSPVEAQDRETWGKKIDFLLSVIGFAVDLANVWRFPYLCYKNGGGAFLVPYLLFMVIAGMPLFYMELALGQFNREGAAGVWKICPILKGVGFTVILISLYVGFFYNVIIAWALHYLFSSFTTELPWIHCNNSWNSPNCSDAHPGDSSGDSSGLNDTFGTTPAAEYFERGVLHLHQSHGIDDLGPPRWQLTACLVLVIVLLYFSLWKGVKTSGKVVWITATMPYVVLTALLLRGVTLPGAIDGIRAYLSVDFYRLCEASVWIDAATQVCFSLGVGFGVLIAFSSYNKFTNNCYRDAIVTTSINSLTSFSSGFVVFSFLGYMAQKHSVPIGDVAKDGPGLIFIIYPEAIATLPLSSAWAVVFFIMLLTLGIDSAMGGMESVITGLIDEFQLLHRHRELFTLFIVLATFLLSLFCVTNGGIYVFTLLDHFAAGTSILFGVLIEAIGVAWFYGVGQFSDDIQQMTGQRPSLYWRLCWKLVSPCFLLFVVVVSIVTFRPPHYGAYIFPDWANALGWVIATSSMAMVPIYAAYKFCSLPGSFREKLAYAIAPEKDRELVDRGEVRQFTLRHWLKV

[3] = target: Sodium-dependent serotonin transporter (Homo sapiens, UniProt P31645); experiment: Inhibition of human SERT expressed in HEK293 cells assessed as reduction in [3H]5-HT uptake by micro beta scintillation counting analysis
Sodium-dependent serotonin transporter, sequence (P31645 whole entry): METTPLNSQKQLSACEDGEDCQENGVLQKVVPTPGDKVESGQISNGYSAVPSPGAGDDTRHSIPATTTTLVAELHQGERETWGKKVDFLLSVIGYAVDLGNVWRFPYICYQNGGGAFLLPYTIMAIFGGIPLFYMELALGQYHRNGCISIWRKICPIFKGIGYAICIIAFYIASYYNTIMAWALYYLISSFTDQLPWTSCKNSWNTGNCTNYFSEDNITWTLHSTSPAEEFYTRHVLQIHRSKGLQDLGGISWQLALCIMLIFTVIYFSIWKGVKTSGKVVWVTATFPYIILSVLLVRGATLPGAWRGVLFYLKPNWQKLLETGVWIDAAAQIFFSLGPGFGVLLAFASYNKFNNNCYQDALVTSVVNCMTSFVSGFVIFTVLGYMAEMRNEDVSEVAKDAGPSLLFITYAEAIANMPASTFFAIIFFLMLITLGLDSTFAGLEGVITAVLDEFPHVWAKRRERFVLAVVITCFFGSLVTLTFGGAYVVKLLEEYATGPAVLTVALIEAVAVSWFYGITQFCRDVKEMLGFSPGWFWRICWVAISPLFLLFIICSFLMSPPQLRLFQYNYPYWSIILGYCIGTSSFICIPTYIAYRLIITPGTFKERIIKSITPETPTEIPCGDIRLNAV

Sodium-dependent noradrenaline transporter, sequence (P23975 whole entry): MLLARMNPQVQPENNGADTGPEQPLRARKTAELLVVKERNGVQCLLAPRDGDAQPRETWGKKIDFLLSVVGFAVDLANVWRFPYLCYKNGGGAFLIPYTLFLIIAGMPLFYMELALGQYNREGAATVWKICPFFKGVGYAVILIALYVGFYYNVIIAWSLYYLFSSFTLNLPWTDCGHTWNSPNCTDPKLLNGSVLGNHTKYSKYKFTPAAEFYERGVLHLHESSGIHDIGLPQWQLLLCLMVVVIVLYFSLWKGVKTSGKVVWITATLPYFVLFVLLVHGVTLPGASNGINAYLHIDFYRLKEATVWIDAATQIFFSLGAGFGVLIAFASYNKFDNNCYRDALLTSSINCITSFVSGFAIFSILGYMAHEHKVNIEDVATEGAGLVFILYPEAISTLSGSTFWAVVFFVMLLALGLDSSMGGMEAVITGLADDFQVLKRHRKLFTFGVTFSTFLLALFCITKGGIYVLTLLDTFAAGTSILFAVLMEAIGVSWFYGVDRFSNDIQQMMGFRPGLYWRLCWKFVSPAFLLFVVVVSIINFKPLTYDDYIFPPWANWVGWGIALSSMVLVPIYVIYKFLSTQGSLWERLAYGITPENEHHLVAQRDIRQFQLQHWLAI

For `O=C(NCCCN1CCN(c2ncccn2)CC1)c1cc(Cl)cc(Cl)c1`, the IC50 [1] was greater than 10 µM, the IC50 [2] was greater than 10 µM and the IC50 [3] was greater than 10 µM.
Compound `O=C(NCCCN1CCN(c2cccc(Cl)c2Cl)CC1)c1cc2ccccc2s1` has an IC50 [1] of 3.66 µM and an IC50 [3] of 0.4 µM.
`O=C(NCCCN1CCN(c2ncccn2)CC1)c1ccc2ccccc2n1` was tested, and the IC50 [1] was greater than 10 µM, the IC50 [2] was greater than 10 µM and the IC50 [3] was greater than 10 µM.
`O=C(NCCCN1CCN(c2ccccn2)CC1)c1cccc2ccccc12` gave an IC50 [1] greater than 10 µM, an IC50 [2] greater than 10 µM and an IC50 [3] greater than 10 µM.
Compound `O=C(NCCCN1CCN(c2ncccn2)CC1)c1cccc2ccccc12` has an IC50 [1] greater than 10 µM, an IC50 [2] greater than 10 µM and an IC50 [3] greater than 10 µM.
`Cc1ccc(N2CCN(CCCNC(=O)c3ccc4ccccc4c3)CC2)cc1` was tested, and the IC50 [1] was 2.69 µM and the IC50 [3] was 0.46 µM.
For `O=C(NCCCN1CCN(c2ccc(C(F)(F)F)cc2)CC1)c1cc2ccccc2o1`, the IC50 [1] was greater than 10 µM and the IC50 [3] was 0.741 µM.
In the case of `Cc1ccc(N2CCN(CCCNC(=O)c3ccc4ccccc4n3)CC2)cc1`, the IC50 [1] is reported as greater than 10 µM and the IC50 [3] is reported as 0.23 µM.
For `O=C(NCCCN1CCN(c2ccccn2)CC1)c1ccc2ccccc2n1`, the IC50 [1] was greater than 10 µM, the IC50 [2] was greater than 10 µM and the IC50 [3] was 6.94 µM.
Compound `O=C(NCCCN1CCN(c2cccc(Cl)c2Cl)CC1)c1cc(Cl)cc(Cl)c1` has an IC50 [1] greater than 10 µM, an IC50 [2] greater than 10 µM and an IC50 [3] greater than 10 µM.
With `O=C(NCCCN1CCN(c2ccc(Cl)cc2)CC1)c1ccc2ccccc2c1` the IC50 [1] was greater than 10 µM and the IC50 [3] was 0.28 µM.
In the case of `O=C(NCCCN1CCN(c2ccc(Cl)cc2)CC1)c1ccc2ccccc2n1`, the IC50 [1] is reported as greater than 10 µM and the IC50 [3] is reported as 1.32 µM.
`O=C(NCCCN1CCN(c2ccc(Cl)cc2)CC1)c1cc2ccccc2s1` showed an IC50 [1] of 1.34 µM and an IC50 [3] of 0.55 µM.
In the case of `O=C(NCCCN1CCN(c2ccc(Cl)c(Cl)c2)CC1)c1ccc2ccccc2n1`, the IC50 [1] is reported as greater than 10 µM and the IC50 [3] is reported as 0.273 µM.
`O=C(NCCCN1CCN(c2ncccn2)CC1)c1ccc2ccccc2c1` showed an IC50 [1] greater than 10 µM, an IC50 [2] greater than 10 µM and an IC50 [3] greater than 10 µM.
With `O=C(NCCCN1CCN(c2cccc(Cl)c2Cl)CC1)c1ccc2ccccc2c1` the IC50 [1] was 0.26 µM, the IC50 [2] was greater than 10 µM and the IC50 [3] was 0.74 µM.
Work on `COc1ccccc1N1CCN(CCCNC(=O)c2ccc3ccccc3n2)CC1` yielded an IC50 [1] greater than 10 µM and an IC50 [3] greater than 10 µM.
Work on `O=C(NCCCN1CCN(c2cccc(Cl)c2Cl)CC1)c1cccc2ccccc12` yielded an IC50 [1] greater than 10 µM, an IC50 [2] greater than 10 µM and an IC50 [3] of 4.27 µM.
In the case of `O=C(NCCCN1CCN(c2ccccn2)CC1)c1cc(Cl)cc(Cl)c1`, the IC50 [1] is reported as greater than 10 µM, the IC50 [2] is reported as greater than 10 µM and the IC50 [3] is reported as greater than 10 µM.
Work on `O=C(NCCCN1CCN(c2ccc(Cl)cc2Cl)CC1)c1ccc2ccccc2n1` yielded an IC50 [1] greater than 10 µM and an IC50 [3] of 6.85 µM.
In the case of `O=C(NCCCN1CCN(c2cccc(Cl)c2Cl)CC1)c1ccc(-c2ccccc2)cc1`, the IC50 [1] is reported as 3.15 µM and the IC50 [3] is reported as 1.01 µM.
Work on `O=C(NCCCN1CCN(c2cccc(Cl)c2Cl)CC1)c1cc2ccccc2o1` yielded an IC50 [1] greater than 10 µM and an IC50 [3] greater than 10 µM.
`COc1ccccc1N1CCN(CCCNC(=O)c2ccc(-c3ccccc3)cc2)CC1` gave an IC50 [1] of 4.96 µM and an IC50 [3] of 4.46 µM.
For `O=C(NCCCN1CCN(c2ccccn2)CC1)c1ccc2ccccc2c1`, the IC50 [1] was greater than 10 µM, the IC50 [2] was greater than 10 µM and the IC50 [3] was 9.64 µM.
With `O=C(NCCCN1CCN(c2ccccc2)CC1)c1ccc2ccccc2n1` the IC50 [1] was greater than 10 µM and the IC50 [3] was greater than 10 µM.
`COc1ccc(N2CCN(CCCNC(=O)c3ccc4ccccc4n3)CC2)cc1` showed an IC50 [1] of 6.07 µM and an IC50 [3] of 0.23 µM.
In the case of `O=C(NCCCN1CCN(c2cccc(Cl)c2Cl)CC1)c1ccc2ccccc2n1`, the IC50 [1] is reported as 2.55 µM, the IC50 [2] is reported as greater than 10 µM and the IC50 [3] is reported as 1.17 µM.
